From patent US12152060B2, “Interleukin-2 variants and methods of uses thereof” (Cugene Inc, priority 2018, dated 2024)

Tests used:
[1] = tested on: STAT5 phosphorylation in CD4+/Foxp3+/CD25+ Treg, CD4+/Foxp3-/CD25+ CD4 effector and CD4+/Foxp3-/CD25- CD4 naive T cell subsets; assay: STAT5 phosphorylation in three CD4+ T cell subsets, human PBMC; type: cell-based; conditions: FIG. 9
Description: After human PBMC Cells were treated with serial dilutions of test compounds, fixed and permeabilized, washed, and stained with a mixture of anti-CD25-PE, anti-FOXP3-APC, anti-pSTAT5-FITC, and anti-CD4-PerCP-Cy5.5 antibodies, the flow cytometry analysis was gated into CD4+/Foxp3+/CD25+, CD4+/Foxp3−/CD25+, CD4+/Foxp3−/CD25− groups for the Treg, CD4 effector, and CD4 naive T cell subsets, respectively. Data are expressed as a percent of pSTAT5 positive cells in gated population and illustrated in FIG. 9.

[2] = tested on: STAT5 phosphorylation in CD4+ Treg cells (CD4+/Foxp3+/CD25high); assay: STAT5 phosphorylation in CD4+ Treg cells, human PBMC assay by FACS; type: cell-based; conditions: pSTAT5, Treg versus Tconv
Description: Single amino acid substitutions were introduced to IL-2 at positions corresponding to amino acids interacting with receptor subunit(s) β or γ or By. These substitutions were aimed to reduce IL-2 signaling capacity through the intermediate affinity IL-2Rβγ complex and confer signaling specificity from the high affinity IL-2Rαβγ. IL-2 variants containing single amino acid substitutions were examined for their ability to differentially stimulate STAT5 phosphorylation in CD4 positive Treg and Tconv cells. STAT5 is known to be involved in the downstream signaling cascade upon IL-2 binding to the transmembrane IL-2 receptors. The phosphorylation of STAT5 in defined lymphocyte subpopulations was measured using fresh human peripheral blood mononuclear cells (PBMC) and the forkhead transcription factor FOXP3 was used to identify the Treg population in FACS analysis.
Briefly, human PBMC were isolated by Ficoll-Hypaque centrifugation from the buffy coat of a healthy donor. PBMC were starved in serum-free MACS buffer at 4° C. for 1 hour. 2×10^5 PBMC were then treated with serial dilutions of test compounds for 30 min at 37° C. Cells were fixed and permeabilized with Foxp3/Transcription Factor Staining Buffer Set (EBIO) by incubating with 1× Foxp3 fixation/permeabilization working solution for 30 minutes and washing with 1× permeabilization buffer. Cells were additionally fixed with Cytofix buffer and permeabilized with Perm Buffer III (BD Biosciences) and then washed. After blocking Fc receptors by adding human TruStain™ FcX (1:50 dilution), cells were stained with a mixture of anti-CD25-PE, anti-FOXP3-APC, anti-pSTAT5-FITC, and anti-CD4-PerCP-Cy5.5 antibodies at concentrations recommended by the manufacturer for 45 minutes at room temperature. Cells were collected by centrifugation, washed, resuspended in FACS buffer, and analyzed by flow cytometry. The flow cytometry data was gated into CD4+/Foxp3+/CD25^high and CD4+/Foxp3−/CD25^low groups for the Treg and CD4 conventional T cell subsets, respectively. Data are expressed as a percent of pStat5 positive cells in gated population.

[3] = tested on: Treg cells, CD4+ Tconv, CD8 T and NK cells in blood; assay: Dose-response pharmacodynamics study in mice following a single injection; type: in vivo, mouse
Description: Following a single subcutaneous administration of vehicle (PBS) or P-0511 (1, 0.3, 0.1, or 0.03 mg/kg) to female Balb/C mice (n=5/group), peripheral blood was collected on day-2 as baseline, and post dose on days 3, 5, and 7. On day 7, mice were sacrificed, and spleens were harvested. Blood lymphocyte phenotyping, proliferation and expansion were measured by flow cytometry at each timepoint using fresh whole blood.

## P-0511: Fc fusion protein of IL-2 variant L19H/S125I/Q126E; SEQ ID NO: 198
[1]
  pSTAT5 potency and selectivity in Treg, Teff and naive CD4 T cell subsets (in words): preferential activation of Treg over Teff
[1]; listed as P-511
  pSTAT5 potency and selectivity in Treg, Teff and naive CD4 T cell subsets (in words): superior to both Benchmark-2 and -3
[2]
  window for selective activation of Treg cells over CD4+ Tconv cells (in words): further widened the Treg selectivity window
[3]; 0.1 mg/kg single dose
  Treg/Tconv ratio, peak (based on cell count): 0.06
[3]; 0.3 mg/kg single dose
  Treg/Tconv ratio, peak (based on cell count): 0.18
[3]; 1 mg/kg single dose
  Treg/Tconv ratio, peak (based on cell count): 0.27
[3]; 0.03-1 mg/kg single dose
  percentages of CD4+ Tconv, CD8 Teff or NK cells over the total lymphocytes: no statistically significant changes
